Measured values from PubChem BioAssay (NCI).
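Interpolation was linear, between the two tested concentrations surrounding the appropriate level; five concentrations were tested over 48 hours in 96-well plates. Abbreviation: GI50, concentration required for 50% inhibition of growth. At the TGI there is no net growth.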

Columns and labels:
Experiment in all cases: NCI-60 cell line screen, 48 h
[1] = tested on: COLO 205 colon
[2] = tested on: HOP-92 NSCLC
[3] = tested on: A498 renal
[4] = tested on: MOLT-4 leukemia
[5] = tested on: SK-OV-3 ovarian
[6] = tested on: SR leukemia
[7] = tested on: NCI-H460 lung
[8] = tested on: A549 NSCLC
[9] = tested on: HOP-62 NSCLC
[10] = tested on: MDA-MB-231 breast
[11] = tested on: KM12 colon
[12] = tested on: NCI-H226 lung
[13] = tested on: PC-3 prostate
[14] = tested on: NCI-H23 lung
[15] = tested on: ACHN renal
[16] = tested on: OVCAR-5 ovarian
[17] = tested on: SF-539 CNS
[18] = tested on: OVCAR-4 ovarian
[19] = tested on: RPMI-8226 leukemia
[20] = tested on: M14 melanoma
[21] = tested on: UO-31 renal
[22] = tested on: UACC-257 melanoma
[23] = tested on: NCI-H522 lung
[24] = tested on: SF-268 CNS
[25] = tested on: K-562 leukemia
[26] = tested on: HL-60(TB) leukemia
[27] = tested on: SK-MEL-28 melanoma
[28] = tested on: IGROV1 ovarian
[29] = tested on: SK-MEL-2 melanoma
[30] = tested on: MALME-3M melanoma
[31] = tested on: MDA-MB-435
[32] = tested on: SN12C renal
[33] = tested on: OVCAR-8 ovarian
[34] = tested on: UACC-62 melanoma
[35] = tested on: OVCAR-3 ovarian
[36] = tested on: DU-145 prostate
[37] = tested on: BT-549 breast
[38] = tested on: LOX IMVI melanoma
[39] = tested on: HS 578T breast
[40] = tested on: TK-10 renal
[41] = tested on: HT29 colon
[42] = tested on: SNB-19 CNS
[43] = tested on: SK-MEL-5 melanoma
[44] = tested on: HCC-2998 colon
[45] = tested on: NCI/ADR-RES ovarian
[46] = tested on: HCT-15 colon
[47] = tested on: T-47D breast
[48] = tested on: SW-620 colon
[49] = tested on: CCRF-CEM leukemia
[50] = tested on: U251 CNS
[51] = tested on: RXF 393 renal
[52] = tested on: 786-0 renal
[53] = tested on: CAKI-1 renal
[54] = tested on: MDA-MB-468 breast
[55] = tested on: EKVX NSCLC
[56] = tested on: SNB-75 CNS
[57] = tested on: SF-295 CNS
[58] = tested on: HCT-116 colon
[59] = tested on: MCF7 breast

CCOC(=O)c1sc(N/N=C(\C)c2ccc3c(c2)Nc2ccccc2S3)nc1C
GI50 [1]: 9.42 µM | TGI [1]: 32.2 µM | GI50 [2]: 4.9 µM | TGI [2]: 19.9 µM | GI50 [3]: 16.1 µM | TGI [3]: 45.5 µM | GI50 [4]: 6.33 µM | TGI [4]: > 100 µM | GI50 [5]: 16.9 µM | TGI [5]: 39.7 µM | GI50 [6]: > 100 µM | TGI [6]: > 100 µM | GI50 [7]: 5 µM | TGI [7]: 24.2 µM | GI50 [8]: 6.4 µM | TGI [8]: 38.8 µM | GI50 [9]: 13.3 µM | TGI [9]: 29.6 µM | GI50 [10]: 5.73 µM | TGI [10]: 19.1 µM | GI50 [11]: 3.45 µM | TGI [11]: 19.4 µM | GI50 [12]: 10.9 µM | TGI [12]: 29.3 µM | GI50 [13]: 6.04 µM | TGI [13]: 24 µM | GI50 [14]: 8.65 µM | TGI [14]: 21.3 µM | GI50 [15]: 6.1 µM | TGI [15]: 19.1 µM | GI50 [16]: 11.6 µM | TGI [16]: 67.6 µM | GI50 [17]: 10.1 µM | TGI [17]: 21.7 µM | GI50 [18]: 10.7 µM | TGI [18]: 53.7 µM | GI50 [19]: 3.96 µM | TGI [19]: > 100 µM | GI50 [20]: 8.42 µM | TGI [20]: 61.8 µM | GI50 [21]: 6.67 µM | TGI [21]: 20.7 µM | GI50 [22]: 12.4 µM | TGI [22]: 40.4 µM | GI50 [23]: 10.7 µM | TGI [23]: 34.8 µM | GI50 [24]: 13.1 µM | TGI [24]: 40.4 µM | GI50 [25]: 4.03 µM | TGI [25]: > 100 µM | GI50 [26]: 4.89 µM | TGI [26]: > 100 µM | GI50 [27]: 11.1 µM | TGI [27]: 26.1 µM | GI50 [28]: 11.3 µM | TGI [28]: 26 µM | GI50 [29]: 15.4 µM | TGI [29]: 44.8 µM | GI50 [30]: 13.7 µM | TGI [30]: 33.6 µM | GI50 [31]: 10.7 µM | TGI [31]: 33.6 µM | GI50 [32]: 11.5 µM | TGI [32]: 28.3 µM | GI50 [33]: 12 µM | TGI [33]: 39.6 µM | GI50 [34]: 6.06 µM | TGI [34]: 20.6 µM | GI50 [35]: 12.8 µM | TGI [35]: 27.3 µM | GI50 [36]: 8.82 µM | TGI [36]: 29.1 µM | GI50 [37]: 18.4 µM | TGI [37]: 49.3 µM | GI50 [38]: 3.14 µM | TGI [38]: 12.4 µM | GI50 [39]: 10.5 µM | TGI [39]: 50.6 µM | GI50 [40]: 16.6 µM | TGI [40]: 33.5 µM | GI50 [41]: 11.7 µM | TGI [41]: > 100 µM | GI50 [42]: 12.8 µM | TGI [42]: 25.6 µM | GI50 [43]: 7.62 µM | TGI [43]: 27.2 µM | GI50 [44]: 3.71 µM | TGI [44]: 12.8 µM | GI50 [45]: 8.87 µM | TGI [45]: 22.2 µM | GI50 [46]: 3.4 µM | TGI [46]: 14.8 µM | GI50 [47]: 3.94 µM | TGI [47]: 49.2 µM | GI50 [48]: 11.9 µM | TGI [48]: 45.2 µM | GI50 [49]: 6.52 µM | TGI [49]: 94.4 µM | GI50 [50]: 14.1 µM | TGI [50]: 54 µM | GI50 [51]: 3.2 µM | TGI [51]: 13.3 µM | GI50 [52]: 7.21 µM | TGI [52]: 23.1 µM | GI50 [53]: 9.09 µM | TGI [53]: 22.8 µM | GI50 [54]: 3.45 µM | TGI [54]: 15.1 µM | GI50 [55]: 5.82 µM | TGI [55]: 22.8 µM | GI50 [56]: 8.97 µM | TGI [56]: 31.2 µM | GI50 [57]: 3.38 µM | TGI [57]: 14.1 µM | GI50 [58]: 6.64 µM | TGI [58]: > 100 µM | GI50 [59]: 3.36 µM | TGI [59]: 17.5 µM
